Data taken from the NIST ThermoML archive (doi:10.1021/acs.jced.8b00537).
Numbers after ± are expanded uncertainties.

conditions: 323.15 K; 100 kPa; Liquid; Capillary tube (Ostwald / Ubbelohde) method

Compound | viscosity [mPa·s]
CCCC[N+]1(C)CCCC1.O=S(=O)([N-]S(=O)(=O)C(F)(F)F)C(F)(F)F | 28.98 ± 2.3

same assay, conditions: 323.15 K; 100 kPa; Liquid; Frequency=3 MHz; Single path-length method

Compound | speed of sound [m/s]
O=S(=O)([N-]S(=O)(=O)C(F)(F)F)C(F)(F)F.On1cc[n+](O)c1 [1,3-dihydroxyimidazolium bis(trifluoromethylsulfonyl)imide] | 1141.6 ± 6.3
C=CCn1cc[n+](C)c1.O=S(=O)([N-]S(=O)(=O)C(F)(F)F)C(F)(F)F | 1185.2 ± 6.2
CC[S+](CC)CC.O=S(=O)([N-]S(=O)(=O)C(F)(F)F)C(F)(F)F [triethylsulfonium bis((trifluoromethyl)sulfonyl)imide] | 1193.7 ± 6.1
CCCO [propan-1-ol] | 1121.9 ± 6
CCCC[N+]1(C)CCCC1.O=S(=O)([N-]S(=O)(=O)C(F)(F)F)C(F)(F)F | 1214.6 ± 6.3

same assay, conditions: 323.15 K; 100 kPa; Liquid; Vibrating tube method

Compound | mass density [kg/m3]
O=S(=O)([N-]S(=O)(=O)C(F)(F)F)C(F)(F)F.On1cc[n+](O)c1 [1,3-dihydroxyimidazolium bis(trifluoromethylsulfonyl)imide] | 1711.19 ± 4.2
C=CCn1cc[n+](C)c1.O=S(=O)([N-]S(=O)(=O)C(F)(F)F)C(F)(F)F | 1474.45 ± 3.1
CC[S+](CC)CC.O=S(=O)([N-]S(=O)(=O)C(F)(F)F)C(F)(F)F [triethylsulfonium bis((trifluoromethyl)sulfonyl)imide] | 1435.99 ± 2.9
CCCO [propan-1-ol] | 779.05 ± 1.6
CCCC[N+]1(C)CCCC1.O=S(=O)([N-]S(=O)(=O)C(F)(F)F)C(F)(F)F | 1372.3 ± 3.1

same assay, conditions: 328.15 K; 100 kPa; Liquid; Capillary tube (Ostwald / Ubbelohde) method

Compound | viscosity [mPa·s]
O=S(=O)([N-]S(=O)(=O)C(F)(F)F)C(F)(F)F.On1cc[n+](O)c1 [1,3-dihydroxyimidazolium bis(trifluoromethylsulfonyl)imide] | 39.57 ± 3.2
C=CCn1cc[n+](C)c1.O=S(=O)([N-]S(=O)(=O)C(F)(F)F)C(F)(F)F | 13.23 ± 1.1
CC[S+](CC)CC.O=S(=O)([N-]S(=O)(=O)C(F)(F)F)C(F)(F)F [triethylsulfonium bis((trifluoromethyl)sulfonyl)imide] | 12.5 ± 1
CCCO [propan-1-ol] | 0.985 ± 0.079
CCCC[N+]1(C)CCCC1.O=S(=O)([N-]S(=O)(=O)C(F)(F)F)C(F)(F)F | 24.76 ± 2

same assay, conditions: 328.15 K; 100 kPa; Liquid; Frequency=3 MHz; Single path-length method

Compound | speed of sound [m/s]
O=S(=O)([N-]S(=O)(=O)C(F)(F)F)C(F)(F)F.On1cc[n+](O)c1 [1,3-dihydroxyimidazolium bis(trifluoromethylsulfonyl)imide] | 1131.1 ± 6.3
C=CCn1cc[n+](C)c1.O=S(=O)([N-]S(=O)(=O)C(F)(F)F)C(F)(F)F | 1174.7 ± 6.2
CC[S+](CC)CC.O=S(=O)([N-]S(=O)(=O)C(F)(F)F)C(F)(F)F [triethylsulfonium bis((trifluoromethyl)sulfonyl)imide] | 1184.7 ± 6.1
CCCO [propan-1-ol] | 1105.2 ± 6
CCCC[N+]1(C)CCCC1.O=S(=O)([N-]S(=O)(=O)C(F)(F)F)C(F)(F)F | 1204.1 ± 6.3

same assay, conditions: 328.15 K; 100 kPa; Liquid; Vibrating tube method

Compound | mass density [kg/m3]
O=S(=O)([N-]S(=O)(=O)C(F)(F)F)C(F)(F)F.On1cc[n+](O)c1 [1,3-dihydroxyimidazolium bis(trifluoromethylsulfonyl)imide] | 1705.44 ± 4.2
C=CCn1cc[n+](C)c1.O=S(=O)([N-]S(=O)(=O)C(F)(F)F)C(F)(F)F | 1469.5 ± 3.1
CC[S+](CC)CC.O=S(=O)([N-]S(=O)(=O)C(F)(F)F)C(F)(F)F [triethylsulfonium bis((trifluoromethyl)sulfonyl)imide] | 1431.27 ± 2.9
CCCO [propan-1-ol] | 774.79 ± 1.6
CCCC[N+]1(C)CCCC1.O=S(=O)([N-]S(=O)(=O)C(F)(F)F)C(F)(F)F | 1367.94 ± 3.1

same assay, conditions: 333.15 K; 100 kPa; Liquid; Capillary tube (Ostwald / Ubbelohde) method

Compound | viscosity [mPa·s]
O=S(=O)([N-]S(=O)(=O)C(F)(F)F)C(F)(F)F.On1cc[n+](O)c1 [1,3-dihydroxyimidazolium bis(trifluoromethylsulfonyl)imide] | 32.88 ± 2.7
C=CCn1cc[n+](C)c1.O=S(=O)([N-]S(=O)(=O)C(F)(F)F)C(F)(F)F | 11.62 ± 0.93
CC[S+](CC)CC.O=S(=O)([N-]S(=O)(=O)C(F)(F)F)C(F)(F)F [triethylsulfonium bis((trifluoromethyl)sulfonyl)imide] | 10.99 ± 0.88
CCCO [propan-1-ol] | 0.892 ± 0.072
CCCC[N+]1(C)CCCC1.O=S(=O)([N-]S(=O)(=O)C(F)(F)F)C(F)(F)F | 20.74 ± 1.7

same assay, conditions: 333.15 K; 100 kPa; Liquid; Frequency=3 MHz; Single path-length method

Compound | speed of sound [m/s]
O=S(=O)([N-]S(=O)(=O)C(F)(F)F)C(F)(F)F.On1cc[n+](O)c1 [1,3-dihydroxyimidazolium bis(trifluoromethylsulfonyl)imide] | 1120.7 ± 6.3
C=CCn1cc[n+](C)c1.O=S(=O)([N-]S(=O)(=O)C(F)(F)F)C(F)(F)F | 1164.2 ± 6.2
CC[S+](CC)CC.O=S(=O)([N-]S(=O)(=O)C(F)(F)F)C(F)(F)F [triethylsulfonium bis((trifluoromethyl)sulfonyl)imide] | 1175.9 ± 6.1
CCCO [propan-1-ol] | 1088.3 ± 6
CCCC[N+]1(C)CCCC1.O=S(=O)([N-]S(=O)(=O)C(F)(F)F)C(F)(F)F | 1193.6 ± 6.3

same assay, conditions: 333.15 K; 100 kPa; Liquid; Vibrating tube method

Compound | mass density [kg/m3]
O=S(=O)([N-]S(=O)(=O)C(F)(F)F)C(F)(F)F.On1cc[n+](O)c1 [1,3-dihydroxyimidazolium bis(trifluoromethylsulfonyl)imide] | 1699.71 ± 4.2
C=CCn1cc[n+](C)c1.O=S(=O)([N-]S(=O)(=O)C(F)(F)F)C(F)(F)F | 1464.56 ± 3.1
CC[S+](CC)CC.O=S(=O)([N-]S(=O)(=O)C(F)(F)F)C(F)(F)F [triethylsulfonium bis((trifluoromethyl)sulfonyl)imide] | 1426.57 ± 2.9
CCCO [propan-1-ol] | 770.44 ± 1.6
CCCC[N+]1(C)CCCC1.O=S(=O)([N-]S(=O)(=O)C(F)(F)F)C(F)(F)F | 1363.6 ± 3.1

same assay, conditions: 338.15 K; 100 kPa; Liquid; Capillary tube (Ostwald / Ubbelohde) method

Compound | viscosity [mPa·s]
O=S(=O)([N-]S(=O)(=O)C(F)(F)F)C(F)(F)F.On1cc[n+](O)c1 [1,3-dihydroxyimidazolium bis(trifluoromethylsulfonyl)imide] | 27.69 ± 2.2
C=CCn1cc[n+](C)c1.O=S(=O)([N-]S(=O)(=O)C(F)(F)F)C(F)(F)F | 10.28 ± 0.83
CC[S+](CC)CC.O=S(=O)([N-]S(=O)(=O)C(F)(F)F)C(F)(F)F [triethylsulfonium bis((trifluoromethyl)sulfonyl)imide] | 9.726 ± 0.78
CCCO [propan-1-ol] | 0.81 ± 0.065
CCCC[N+]1(C)CCCC1.O=S(=O)([N-]S(=O)(=O)C(F)(F)F)C(F)(F)F | 18.03 ± 1.5

same assay, conditions: 338.15 K; 100 kPa; Liquid; Frequency=3 MHz; Single path-length method

Compound | speed of sound [m/s]
O=S(=O)([N-]S(=O)(=O)C(F)(F)F)C(F)(F)F.On1cc[n+](O)c1 [1,3-dihydroxyimidazolium bis(trifluoromethylsulfonyl)imide] | 1110.4 ± 6.3
C=CCn1cc[n+](C)c1.O=S(=O)([N-]S(=O)(=O)C(F)(F)F)C(F)(F)F | 1153.8 ± 6.2
CC[S+](CC)CC.O=S(=O)([N-]S(=O)(=O)C(F)(F)F)C(F)(F)F [triethylsulfonium bis((trifluoromethyl)sulfonyl)imide] | 1166.8 ± 6.1
CCCO [propan-1-ol] | 1071.5 ± 6
CCCC[N+]1(C)CCCC1.O=S(=O)([N-]S(=O)(=O)C(F)(F)F)C(F)(F)F | 1183.2 ± 6.3

same assay, conditions: 338.15 K; 100 kPa; Liquid; Vibrating tube method

Compound | mass density [kg/m3]
O=S(=O)([N-]S(=O)(=O)C(F)(F)F)C(F)(F)F.On1cc[n+](O)c1 [1,3-dihydroxyimidazolium bis(trifluoromethylsulfonyl)imide] | 1694.01 ± 4.2
C=CCn1cc[n+](C)c1.O=S(=O)([N-]S(=O)(=O)C(F)(F)F)C(F)(F)F | 1459.65 ± 3.1
CC[S+](CC)CC.O=S(=O)([N-]S(=O)(=O)C(F)(F)F)C(F)(F)F [triethylsulfonium bis((trifluoromethyl)sulfonyl)imide] | 1421.87 ± 2.9
CCCO [propan-1-ol] | 766.03 ± 1.5
CCCC[N+]1(C)CCCC1.O=S(=O)([N-]S(=O)(=O)C(F)(F)F)C(F)(F)F | 1359.28 ± 3.1

same assay, conditions: 343.15 K; 100 kPa; Liquid; Capillary tube (Ostwald / Ubbelohde) method

Compound | viscosity [mPa·s]
O=S(=O)([N-]S(=O)(=O)C(F)(F)F)C(F)(F)F.On1cc[n+](O)c1 [1,3-dihydroxyimidazolium bis(trifluoromethylsulfonyl)imide] | 23.59 ± 1.9
C=CCn1cc[n+](C)c1.O=S(=O)([N-]S(=O)(=O)C(F)(F)F)C(F)(F)F | 9.125 ± 0.73
CC[S+](CC)CC.O=S(=O)([N-]S(=O)(=O)C(F)(F)F)C(F)(F)F [triethylsulfonium bis((trifluoromethyl)sulfonyl)imide] | 8.659 ± 0.69
CCCO [propan-1-ol] | 0.737 ± 0.059
CCCC[N+]1(C)CCCC1.O=S(=O)([N-]S(=O)(=O)C(F)(F)F)C(F)(F)F | 15.8 ± 1.3

same assay, conditions: 343.15 K; 100 kPa; Liquid; Frequency=3 MHz; Single path-length method

Compound | speed of sound [m/s]
O=S(=O)([N-]S(=O)(=O)C(F)(F)F)C(F)(F)F.On1cc[n+](O)c1 [1,3-dihydroxyimidazolium bis(trifluoromethylsulfonyl)imide] | 1100.2 ± 6.3
C=CCn1cc[n+](C)c1.O=S(=O)([N-]S(=O)(=O)C(F)(F)F)C(F)(F)F | 1143.5 ± 6.2
CC[S+](CC)CC.O=S(=O)([N-]S(=O)(=O)C(F)(F)F)C(F)(F)F [triethylsulfonium bis((trifluoromethyl)sulfonyl)imide] | 1157.6 ± 6.1
CCCO [propan-1-ol] | 1054.5 ± 6
CCCC[N+]1(C)CCCC1.O=S(=O)([N-]S(=O)(=O)C(F)(F)F)C(F)(F)F | 1173 ± 6.3

same assay, conditions: 343.15 K; 100 kPa; Liquid; Vibrating tube method

Compound | mass density [kg/m3]
O=S(=O)([N-]S(=O)(=O)C(F)(F)F)C(F)(F)F.On1cc[n+](O)c1 [1,3-dihydroxyimidazolium bis(trifluoromethylsulfonyl)imide] | 1688.34 ± 4.1
C=CCn1cc[n+](C)c1.O=S(=O)([N-]S(=O)(=O)C(F)(F)F)C(F)(F)F | 1454.75 ± 3.1
CC[S+](CC)CC.O=S(=O)([N-]S(=O)(=O)C(F)(F)F)C(F)(F)F [triethylsulfonium bis((trifluoromethyl)sulfonyl)imide] | 1417.19 ± 2.9
CCCO [propan-1-ol] | 761.53 ± 1.5
CCCC[N+]1(C)CCCC1.O=S(=O)([N-]S(=O)(=O)C(F)(F)F)C(F)(F)F | 1354.98 ± 3.1
